Laboratory results reported in patent US7211120B2, “Method for forming a pattern of an organic semiconductor film” (Canon Kabushiki Kaisha, priority 2002, dated 2007).

What was measured:
Format in all cases: physicochemical
[1] = Gas-fastness test of printed colour patch with gas corrosion tester; conditions: Reference Example printed article; mixed gas, 72 hours, 24° C., 60% RH
Protocol: (§1) Reddish purple color square patches of 1 cm×1 cm were printed on a recording medium (trade name: PR-101; manufactured by Canon Inc.) using the above two types of ink on an ink-jet printer, trade name: BJ-F 870; manufactured by Canon Inc. The color patches of Example 2 were heat treated at 120° C. for 1 minute for retro-Diels-Alder reaction of the compound 7 and converted into cyan color patch. The resultant color patches of Example 2 and Reference Example were tested for their light-fastness, gas-fastness, water-fastness and moisture-fastness.
Gas-exposure-fastness testing was conducted with a gas corrosion tester under the following test conditions (ANSI/ISA-S71.04-1985). This was to test fastness of an image assuming the effects of various gases in a room.
• Exposing gas composition: H2S: 50 ppb, SO2: 300 ppb, NO2: 1250 ppb, Cl2: 10 ppb, O3: 1200 ppb • Testing duration: 72 hours, Temperature/humidity conditions in a testing vessel: 24° C., 60% RH
The gas-fastness was evaluated as follows: • A: Density remaining rate of 90% or more • B: Density remaining rate of 89 to 80% • C: Density remaining rate of 79% or less (Water-fastness)

[2] = Humidity-fastness test, recorded article stored in thermo-hydrostat vessel; conditions: Reference Example printed article; 30° C., 80% RH, 1 week
Protocol: as §1
The obtained recorded article was stored in a thermo-hydrostat vessel at 30° C., 80% RH for 1 week, drawn from the vessel and dried, and its change in density before and after the test was determined. • A: Density reduction rate of 1% or less • B: Density reduction rate of 2 to 4% • C: Density reduction rate of 5% or more.

[3] = Light-fastness test of printed colour patch with xenon fade meter; conditions: Reference Example printed article; 70 Kl×, 520 hours, 24° C., 60% RH
Protocol: as §1
Light-exposure-fastness test was conducted with a xenone fade meter in accordance with the following test conditions. This was to test fastness of an image mimicking sunlight entering through a window in a room.
• Irradiation Intensity: 70 Kl×testing duration 520 hours • Temperature/humidity conditions in a testing vessel: 24° C., 60% RH • Filter: soda lime (outer), borosilicate (inner)
The light-fastness was evaluated as follows: • A: Density remaining rate of 90% or more • B: Density remaining rate of 89 to 80% • C: Density remaining rate of 79% or less (Gas-fastness)

[4] = Water-fastness test, recorded article immersed in city water; conditions: Reference Example printed article; city water 5 minutes
Protocol: as §1
The obtained recorded article was immersed in city water for 5 minutes, drawn up from the water and dried, and its change in density before and after the test was determined. • A: Density reduction rate of 1% or less. • B: Density reduction rate of 2 to 4% • C: Density reduction rate of 5% or more (Humidity-fastness)

Humidity-fastness [2]: B (Density reduction rate of 2 to 4%)
Water-fastness [4]: C (Density reduction rate of 5% or more)
Substance: C.I. Direct Blue 199 [DBL-199]
Gas-fastness [1]: C (Density remaining rate of 79% or less)
Light-fastness [3]: A (Density remaining rate of 90% or more)
